In ChEMBL document CHEMBL1201862, “PubChem BioAssay data set” (2004):
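Briefly, cells in 96-well plates were exposed to five compound concentrations for 48 h, and endpoints were estimated by linear interpolation. Abbreviation: GI50, concentration required for 50% inhibition of growth.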 Active and inactive are the calls of the source. Rule as the data show it: active = GI50 up to about 1.1 µM and inactive = higher.

Tests used:
Experiment in all cases: inhibition of tumour cell growth, NCI panel, 48 h
NCI-H23 = test system: NCI-H23
M14 = test system: M14
OVCAR-5 = test system: OVCAR-5
M19-MEL = test system: M19-MEL
SNB-75 = test system: SNB-75
EKVX = test system: EKVX
HOP-18 = test system: HOP-18
SK-MEL-5 = test system: SK-MEL-5
ACHN = test system: ACHN
UO-31 = test system: UO-31
RXF 393 = test system: RXF 393
TK-10 = test system: TK-10
XF498 = test system: XF498
RXF 631 = test system: RXF 631
786-0 = test system: 786-0
COLO 205 = test system: COLO 205
OVCAR-8 = test system: OVCAR-8
HOP-62 = test system: HOP-62
KM12 = test system: KM12
DMS-273 = test system: DMS-273
A498 = test system: A498
HCT-15 = test system: HCT-15
LOX IMVI = test system: LOX IMVI
SF-295 = test system: SF-295
CCRF-CEM = test system: CCRF-CEM
Malme-3M = test system: Malme-3M
SK-MEL-2 = test system: SK-MEL-2
SK-MEL-28 = test system: SK-MEL-28
IGROV-1 = test system: IGROV-1
SN12C = test system: SN12C
DLD-1 = test system: DLD-1
SW-620 = test system: SW-620
SR = test system: SR
HCT-116 = test system: HCT-116
SNB-78 = test system: SNB-78
K562 = test system: K562
SF-539 = test system: SF-539
UACC-62 = test system: UACC-62
SNB-19 = test system: SNB-19
SF-268 = test system: SF-268
UACC-257 = test system: UACC-257
NCI-H522 = test system: NCI-H522
A549 = test system: A549
LXFL 529 = test system: LXFL 529
HOP-92 = test system: HOP-92
KM-20L2 = test system: KM-20L2
U-251 = test system: U-251
MOLT-4 = test system: MOLT-4
CAKI-1 = test system: CAKI-1
OVCAR-3 = test system: OVCAR-3
NCI-H226 = test system: NCI-H226
NCI-H460 = test system: NCI-H460
DMS-114 = test system: DMS-114
HCC 2998 = test system: HCC 2998
OVCAR-4 = test system: OVCAR-4
SK-OV-3 = test system: SK-OV-3

**Q.** Which results are given for `O=C(c1ccccc1)c1ccc(OCCOc2ccc(Nc3ccccc3)cc2)cc1`?
**A.** GI50 (NCI-H23): 46.8 µM (inactive); GI50 (M14): 49.5 µM (inactive); GI50 (OVCAR-5): > 100 µM (inactive); GI50 (M19-MEL): 70.3 µM (inactive); GI50 (SNB-75): 15.6 µM (inactive); GI50 (EKVX): 74.8 µM (inactive); GI50 (HOP-18): 65.5 µM (inactive); GI50 (SK-MEL-5): 21.9 µM (inactive); GI50 (ACHN): 24.3 µM (inactive); GI50 (UO-31): > 100 µM (inactive); GI50 (RXF 393): 35.2 µM (inactive); GI50 (TK-10): 28.6 µM (inactive); GI50 (XF498): 16.1 µM (inactive); GI50 (RXF 631): 17.7 µM (inactive); GI50 (786-0): 25 µM (inactive); GI50 (COLO 205): > 100 µM (inactive); GI50 (OVCAR-8): 32.4 µM (inactive); GI50 (HOP-62): 23.9 µM (inactive); GI50 (KM12): > 100 µM (inactive); GI50 (DMS-273): > 100 µM (inactive); GI50 (A498): 27.4 µM (inactive); GI50 (HCT-15): 74.6 µM; GI50 (LOX IMVI): > 100 µM (inactive); GI50 (SF-295): 27.2 µM (inactive); GI50 (CCRF-CEM): > 100 µM (inactive); GI50 (Malme-3M): 19.2 µM (inactive); GI50 (SK-MEL-2): 38.3 µM (inactive); GI50 (SK-MEL-28): 73.3 µM (inactive); GI50 (IGROV-1): 52.2 µM (inactive); GI50 (SN12C): 42.3 µM (inactive); GI50 (DLD-1): 50.9 µM (inactive); GI50 (SW-620): > 100 µM (inactive); GI50 (SR): > 100 µM (inactive); GI50 (HCT-116): 69.2 µM (inactive); GI50 (SNB-78): 35.2 µM (inactive); GI50 (K562): > 100 µM (inactive); GI50 (SF-539): 24.5 µM (inactive); GI50 (UACC-62): 63.4 µM (inactive); GI50 (SNB-19): 27.7 µM (inactive); GI50 (SF-268): 27.3 µM (inactive); GI50 (UACC-257): 65.8 µM (inactive); GI50 (NCI-H522): 17.8 µM (inactive); GI50 (A549): 64.3 µM (inactive); GI50 (LXFL 529): 41.1 µM (inactive); GI50 (HOP-92): 27.3 µM (inactive); GI50 (KM-20L2): > 100 µM (inactive); GI50 (U-251): 16.6 µM (inactive); GI50 (MOLT-4): > 100 µM (inactive); GI50 (CAKI-1): 47.3 µM (inactive); GI50 (OVCAR-3): 37.2 µM (inactive); GI50 (NCI-H226): 33.6 µM (inactive); GI50 (NCI-H460): 65.5 µM (inactive); GI50 (DMS-114): 6.84 µM (inactive); GI50 (HCC 2998): > 100 µM (inactive); GI50 (OVCAR-4): 17.7 µM (inactive); GI50 (SK-OV-3): 22.9 µM (inactive)
